Values of other authors as cited in patent publication US11608326B2, “Synthetic receptors for ionophoric compounds” (Universiteit Gent, priority 2018, dated 2023).

Tests used:
[1] = tested on: human neural (Paju) cells
[2] = tested on: human leukemia cells; conditions: 3 μM, overnight incubation

## beauvericin
[1]
  concentration sufficient to cause depolarization: low μM concentrations
[2]
  drop of survival rate: 80%
